Results taken from US11491161B2, “Methods and compositions for treatment of pulmonary hypertension and other lung disorders” (Respira Therapeutics, Inc., priority 2016, dated 2022).
Structures can show the parent of a compound that is named as a salt.

Tests used:
[1] = particle size distribution of micronized drug substance by laser diffraction; assay type: physicochemical; details: hydrochloride trihydrate
From the text: The coarse drug substance as received was forced into the milling chamber by a compressed air stream, through a Venturi tube with a higher pressure (P_vent) and metered into the mill at the desired rate (F-feed). Nitrogen was used as grinding gas and adjusted to the desired pressure (P_grind) to mill the drug particles. The micronized material was characterized for process yield gravimetrically, particle size distribution (PSD) by laser diffraction (Malvern Masersizer) and moisture content by Karl Fischer (KF) analysis. A finer micronized drug substance PSD as evidenced with smaller volume weighted median diameter (Dv50=1.8 μm) and linear interpolated size of the 90th percentile (Dv90=4.5 μm) was obtained using higher Venturi (P_Vent=7.5 bar) and grinding pressures (P_Grind=6 bar) as compared with a batch with a slightly coarser PSD of […] when using the jet mill operated at lower pressures (ca. P_Vent=5.5 bar and P_Grind=4.5 bar) (Table 1).

[2] = octanol-water partition coefficient; cited from earlier work
[3] = in vivo; cited from earlier work
plasma proteins = details: cited from earlier work
PDE5 enzyme = PDE5 enzyme (Homo sapiens, UniProt O76074); details: cited from earlier work
human patients with PAH = details: 5 mg orally twice per day (b.i.d.); cited from earlier work
[4] = inhaled, following pulmonary administration; peak at first time-point tested; cited from earlier work
[5] = in vivo; cited from earlier work; remark: listed apart in the source

Row | Structure (SMILES) | log P [2] | protein binding in the systemic circuit (plasma proteins) | half-life at the catalytic site on the PDE enzyme (PDE5 enzyme) | further results
1 | CCCc1nc(C)c2c(=O)[nH]c(-c3cc(S(=O)(=O)N4CCN(CC)CC4)ccc3OCC)nn12 [Batch 1, vardenafil hydrochloride trihydrate] | – | – | – | PSD by Laser diffraction Dv10 [1]: 0.5 μm; PSD by Laser diffraction Dv50 [1]: 1.8 μm; PSD by Laser diffraction Dv90 [1]: 4.5 μm; PSD by Laser diffraction Span [1]: 2.2
2 | CCCc1nc(C)c2c(=O)[nH]c(-c3cc(S(=O)(=O)N4CCN(CC)CC4)ccc3OCC)nn12 [Batch 2, vardenafil hydrochloride trihydrate] | – | – | – | PSD by Laser diffraction Dv10 [1]: 0.7 μm; PSD by Laser diffraction Dv50 [1]: 2.9 μm; PSD by Laser diffraction Dv90 [1]: 5.5 μm; PSD by Laser diffraction Span [1]: 1.7
3 | CCCCC[C@H](O)/C=C/[C@@H]1[C@H]2C/C(=C/CCCC(=O)O)O[C@H]2C[C@H]1O [epoprostenol, (5Z,9α,11α,13E,15S)-6,9-epoxy-11,15-dihydroxyprosta-5,13-dien-1-oic acid] | 2.9 | – | – | –
4 | CCCCC[C@H](O)CC[C@@H]1[C@H]2Cc3cccc(OCC(=O)O)c3C[C@H]2C[C@H]1O [treprostinil, (1R,2R,3aS,9aS)-[[2,3,3a,4,9,9a-hexahydro-2-hydroxy-1-[(3S)-3-hydroxyoctyl]-1H-benz[f]inden-5-yl]oxy]acetic acid] | 4.1 | – | – | oral bioavailability [3]: 18%
5 | COc1ccc(CN=c2[nH]c(N3CCC[C@H]3CO)ncc2C(=O)NCc2ncccn2)cc1Cl [avanafil, (S)-4-[(3-chloro-4-methoxybenzyl)amino]-2-[2-(hydroxymethyl)-1-pyrrolidinyl]-N-(2-pyrimidinylmethyl)-5-pyrimidinecarboxamide] | 2.6 | 99% | – | –
6 | CN1CC(=O)N2[C@H](c3ccc4c(c3)OCO4)c3[nH]c4ccccc4c3C[C@@H]2C1=O [tadalafil, (6R,12aR)-2,3,6,7,12,12a-hexahydro-2-methyl-6-(1,3-benzodioxol-5-yl)-pyrazino[1′,2′:1,6]pyrido[3,4-b]indole-1,4-dione] | – | 94% | 7 min | –
7 | CCCc1nc(C)c2c(=O)nc(-c3cc(S(=O)(=O)N4CCN(CC)CC4)ccc3OCC)[nH]n12 [vardenafil, 1-[[3-(1,4-dihydro-5-methyl-4-oxo-7-propylimidazo[5,1-f][1,2,4]triazin-2-yl)-4-ethoxyphenyl]sulfonyl]-4-ethyl-piperazine] | – | 93-95% | about 2 hr | safety and efficacy in PAH (human patients with PAH): safe and effective; tmax [4]: ≤ 2 min
8 | CCCc1nn(C)c2c(=O)[nH]c(-c3cc(S(=O)(=O)N4CCN(C)CC4)ccc3OCC)nc12 [sildenafil, 1-[[3-(6,7-dihydro-1-methyl-7-oxo-3-propyl-1H-pyrazolo[4,3-d]pyrimidin-5-yl)-4-ethoxyphenyl]sulfonyl]-4-methylpiperazine] | – | 96% | 3 min | –
9 | CC#CCC(C)[C@H](O)/C=C/[C@@H]1[C@H]2C/C(=C/CCCC(=O)O)C[C@H]2C[C@H]1O (stereo partly drawn) [iloprost, (E)-(3aS, 4R, 5R, 6aS)-hexahydro-5-hydroxy-4-[(E)-(3S,4RS)-3-hydroxy-4-methyl-1-octen-6-ynyl]-Δ^2(1H),Δ-pentalenevaleric acid] | 4.8 | – | – | duration of action [5]: about 30 min
10 | COc1ccccc1Oc1c(NS(=O)(=O)c2ccc(C(C)(C)C)cc2)nc(-c2ncccn2)nc1OCCO [bosentan] | 3.7 | 98% | – | –
